Measurements published in paper PMC5908784, “Extracellular loops 2 and 3 of the calcitonin receptor selectively modify agonist binding and efficacy” (Biochemical Pharmacology, 2018).
Positions count from the first letter of the chain named.

How the values were obtained:
hCTR C289A = biological target: T1, hCTR C289A (Homo sapiens, UniProt P30988, C289A); assay: IP1 accumulation; format: cell-based; settings: IP1 maximal response, mean ± S.E.M., SEM
T1 construct: c-Myc (N); expressed in transfected cells
T1 sequence (P30988 25-474 C289A): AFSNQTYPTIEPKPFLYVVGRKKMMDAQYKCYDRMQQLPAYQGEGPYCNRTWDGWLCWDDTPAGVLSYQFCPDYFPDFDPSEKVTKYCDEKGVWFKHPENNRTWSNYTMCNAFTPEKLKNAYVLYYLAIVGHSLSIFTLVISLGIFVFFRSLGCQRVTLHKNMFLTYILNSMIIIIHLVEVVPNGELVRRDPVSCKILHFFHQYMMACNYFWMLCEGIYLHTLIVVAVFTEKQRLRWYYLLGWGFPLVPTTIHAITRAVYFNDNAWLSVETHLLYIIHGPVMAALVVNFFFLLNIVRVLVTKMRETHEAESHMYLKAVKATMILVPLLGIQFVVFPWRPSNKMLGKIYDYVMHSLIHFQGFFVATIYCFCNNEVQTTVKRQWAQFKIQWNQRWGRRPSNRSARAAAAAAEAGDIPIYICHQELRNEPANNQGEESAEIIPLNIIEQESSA
Procedure, shortened: (§1)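 HTRF IP-One readout of IP1 after 60 min ligand stimulation (LiCl present), cells seeded overnight. Normalized to 100 μM ATP max response. EC50/Emax via 3-parameter logistic curve fit.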

hCTR I300A = biological target: T2, hCTR I300A (Homo sapiens, UniProt P30988, I300A); assay: IP1 accumulation; format: cell-based; settings: IP1 maximal response, mean ± S.E.M., SEM
T2 construct: c-Myc (N); expressed in transfected cells
T2 sequence (P30988 25-474 I300A): T1 sequence (P30988 25-474 C289A) with A265C, I276A
Procedure, shortened: as §1

Row | Compound | Emax (hCTR C289A) | Emax (hCTR I300A)
1 | CC(C)C[C@H](NC(=O)[C@H](CCCCN)NC(=O)CNC(=O)[C@H](CC(C)C)NC(=O)[C@@H](NC(=O)[C@@H]1CSSC[C@H](N)C(=O)N[C@@H](CO)C(=O)N[C@@H](CC(N)=O)C(=O)N[C@@H](CC(C)C)C(=O)N[C@@H](CO)C(=O)N[C@@H]([C@@H](C)O)C(=O)N1)C(C)C)C(=O)N[C@@H](CO)C(=O)N[C@@H](CCC(N)=O)C(=O)N[C@@H](CCC(=O)O)C(=O)N[C@@H](CC(C)C)C(=O)N[C@@H](Cc1c[nH]cn1)C(=O)N[C@@H](CCCCN)C(=O)N[C@@H](CC(C)C)C(=O)N[C@@H](CCC(N)=O)C(=O)N[C@H](C(=O)N[C@@H](Cc1ccc(O)cc1)C(=O)N1CCC[C@H]1C(=O)N[C@@H](CCCNC(=N)N)C(=O)N[C@H](C(=O)N[C@@H](CC(N)=O)C(=O)N[C@H](C(=O)NCC(=O)N[C@@H](CO)C(=O)NCC(=O)N[C@H](C(=O)N1CCC[C@H]1C(N)=O)[C@@H](C)O)[C@@H](C)O)[C@@H](C)O)[C@@H](C)O [sCT] | 42 ± 4% | –
2 | CC[C@H](C)[C@H](NC(=O)[C@H](C)NC(=O)[C@@H](NC(=O)[C@H](CCC(N)=O)NC(=O)[C@@H]1CCCN1C(=O)[C@H](Cc1ccccc1)NC(=O)[C@@H](NC(=O)[C@H](Cc1c[nH]cn1)NC(=O)[C@H](Cc1ccccc1)NC(=O)[C@H](CCCCN)NC(=O)[C@H](CC(N)=O)NC(=O)[C@H](Cc1ccccc1)NC(=O)[C@H](CC(=O)O)NC(=O)[C@H](CCC(N)=O)NC(=O)[C@@H](NC(=O)[C@H](Cc1ccc(O)cc1)NC(=O)[C@@H](NC(=O)CNC(=O)[C@H](CC(C)C)NC(=O)[C@H](CCSC)NC(=O)[C@@H]1CSSC[C@H](N)C(=O)NCC(=O)N[C@@H](CC(N)=O)C(=O)N[C@@H](CC(C)C)C(=O)N[C@@H](CO)C(=O)N[C@@H]([C@@H](C)O)C(=O)N1)[C@@H](C)O)[C@@H](C)O)[C@@H](C)O)[C@@H](C)O)C(=O)NCC(=O)N[C@H](C(=O)NCC(=O)N[C@@H](C)C(=O)N1CCC[C@H]1C(N)=O)C(C)C [hCT] | – | 44 ± 4%
